Experimental data as given in patent publication US12559489B2, “Antagonistic small molecule compound having toll-like receptor 7/9 inhibitory function” (AJOU UNIVERSITY INDUSTRY-ACADEMIC COOPERATION FOUNDATION, priority 2020, dated 2026).
pIC50: −log10 of the molar value. Like-named read-outs stand apart in the source and are kept apart here.

Tests used:
[1] = Solubility noted during preparation; assay type: physicochemical; details: remark in the preparation example, no medium stated
Protocol: 0.5 g (4.2 mmol) of […] was dissolved in 50 ml of MC, and 2.8 g (21 mmol, 5 eq) of AlCl3 was added thereto, followed by stirring at room temperature for 1 hour. A solution of 2.28 g (12.3 mmol) of p-nitrobenzoyl chloride in 10 ml of MC was added dropwise to the reaction solution at room temperature. The mixture was stirred overnight. When the reaction was completed, the reactor containing the concentrated residue was placed in an ice bath, 30 g of ice water was added thereto, and then stirred for 1 hour. Then, the result was filtered and washed with water. The solid was dissolved in 30 mL of MC and 10 mL of MeOH, and washed with 30 mL of Sat'd NaHCO3, and the layers were separated. The MC layer was washed with water, and the organic layer was dried over MgSO4, filtered, and concentrated under reduced pressure. After refluxing in 20 ml of IPA, the result was stirred at room temperature for 1 hour and then filtered. The solid was refluxed in 20 ml of MC, stirred at room temperature for 1 hour, and filtered to prepare 85 mg of (3-nitro-phenyl)-(1H-pyrrolo[2,3-b]pyridin-3-yl)-methanone (yield: 7.5%). However, it was not easy to remove impurities, so the yield was low and solubility was also low.

RAW264.7 cells = assay: MTT cytotoxicity assay in RAW264.7 cells; assay type: cell-based, murine; details: RAW264.7 cells, 1, 10 and 50 μM, 24 hours (FIG. 7A)
Protocol: (§1) RAW264.7 cells, which are murine macrophages (ATCC, Manassas, VA, USA), were incubated in low-glucose DMEM (Thermo Fisher Scientific Inc.) supplemented with 10% FBS, 100 IU/ml of penicillin and 100 μg/ml of streptomycin in an incubator. Imiquimod (IMQ; TLR7 agonist) and CpG-ODN (ODN 2395; TLR9 agonist) were obtained from InvivoGen (San Diego, CA, USA), and hydroxychloroquine (HCQ; endosomal TLRs inhibitor) was obtained from Sigma Aldrich Co. (St. Louis, MO, USA).
(§2) RAW264.7 cells were incubated along with 1, 10 or 50 μM of a compound. After 24 hours, MTT (3-(4,5-dimethylthiazol-2-yl)-2,5-diphenyltetrazolium bromide) assay and enzyme-linked immunosorbent assay (ELISA) were sequentially performed.

TLR7 = target: T1, TLR7 (Mus musculus, UniProt P58681); assay: Inhibition of IMQ (TLR7 agonist)-induced TNF-α secretion in RAW264.7 cells, ELISA; assay type: cell-based, murine; details: for inhibition of secretion of TLR7-induced TNF-α: in the presence of IMQ, 1, 10 or 50 μM, ELISA (FIG. 7B and 7C)
T1 construct: host or cells: RAW264.7 murine macrophages
T1 sequence (P58681 27-1050): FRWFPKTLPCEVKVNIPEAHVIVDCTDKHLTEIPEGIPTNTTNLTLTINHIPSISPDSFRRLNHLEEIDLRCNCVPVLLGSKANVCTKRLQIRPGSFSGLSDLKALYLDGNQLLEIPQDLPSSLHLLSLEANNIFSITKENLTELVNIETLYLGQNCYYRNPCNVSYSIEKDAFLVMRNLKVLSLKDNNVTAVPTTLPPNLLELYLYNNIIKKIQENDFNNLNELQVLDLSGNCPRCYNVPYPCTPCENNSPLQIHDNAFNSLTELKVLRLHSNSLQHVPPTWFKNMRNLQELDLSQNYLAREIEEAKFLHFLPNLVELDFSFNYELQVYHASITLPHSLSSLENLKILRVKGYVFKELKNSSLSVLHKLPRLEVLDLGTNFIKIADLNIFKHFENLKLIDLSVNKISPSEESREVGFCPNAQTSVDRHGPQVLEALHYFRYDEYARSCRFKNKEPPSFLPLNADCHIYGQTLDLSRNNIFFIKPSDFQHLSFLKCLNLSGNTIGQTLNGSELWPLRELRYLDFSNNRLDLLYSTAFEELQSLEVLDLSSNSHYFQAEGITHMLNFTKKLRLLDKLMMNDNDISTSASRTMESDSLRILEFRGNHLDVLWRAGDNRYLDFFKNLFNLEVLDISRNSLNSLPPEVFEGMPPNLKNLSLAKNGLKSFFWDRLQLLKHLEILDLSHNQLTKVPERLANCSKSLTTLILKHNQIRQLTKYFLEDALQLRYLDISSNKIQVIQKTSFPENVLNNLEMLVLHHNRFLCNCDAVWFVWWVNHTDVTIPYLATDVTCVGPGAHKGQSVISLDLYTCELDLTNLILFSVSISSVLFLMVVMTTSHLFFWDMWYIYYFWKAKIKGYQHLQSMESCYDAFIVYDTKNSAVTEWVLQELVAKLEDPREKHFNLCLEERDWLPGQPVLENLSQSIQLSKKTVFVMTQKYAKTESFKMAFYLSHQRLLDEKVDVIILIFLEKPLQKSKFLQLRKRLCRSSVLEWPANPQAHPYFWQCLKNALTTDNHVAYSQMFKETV
Protocol: as §1, §2
(§3) ODN 2395 was used as a ligand to activate TLR9 and IMQ was used to induce TLR7 activity. The inhibitory effects of TAC5-050 and TAC5-051 against TLR9 or TLR7 were determined. HCQ, which is known to inhibit endosomal TLRs, was used as a control group. Since the median inhibitory concentration was expected to range from 50 and 20 μM, the concentration range was set to decrease by half from the high concentration (50 μM) to the low concentration ([…]).
(§4) RAW264.7 cells (2×10^4 cells/well) were treated with small molecule compounds and HCQ for 1 hour (0.25% DMSO), incubated and then treated with ODN 2395 (0.5 μM) or IMQ (1 μg/ml) for 4 hours. Then, the ELISA for detecting mTNF-α was performed in accordance with the following protocol: • 1. Transfer samples from 96 well cell culture plate to elisa coated plate) and incubate for 2 h • 2. Treat detection antibody and incubate for 1 h • 3. Treat HRP and incubate for 30 min • 4. Treat TMB and read the samples by using micro-plate reader machine

TLR9 = target: T2, TLR9 (Mus musculus, UniProt Q9EQU3); assay: Inhibition of ODN 2395 (TLR9 agonist)-induced TNF-α secretion in RAW264.7 cells, ELISA; assay type: cell-based, murine; details: for inhibition of secretion of TLR9-induced TNF-α: in the presence of ODN 2395, 1, 10 or 50 μM, ELISA (FIG. 7B and 7C)
T2 construct: host or cells: RAW264.7 murine macrophages
T2 sequence (Q9EQU3 26-1032): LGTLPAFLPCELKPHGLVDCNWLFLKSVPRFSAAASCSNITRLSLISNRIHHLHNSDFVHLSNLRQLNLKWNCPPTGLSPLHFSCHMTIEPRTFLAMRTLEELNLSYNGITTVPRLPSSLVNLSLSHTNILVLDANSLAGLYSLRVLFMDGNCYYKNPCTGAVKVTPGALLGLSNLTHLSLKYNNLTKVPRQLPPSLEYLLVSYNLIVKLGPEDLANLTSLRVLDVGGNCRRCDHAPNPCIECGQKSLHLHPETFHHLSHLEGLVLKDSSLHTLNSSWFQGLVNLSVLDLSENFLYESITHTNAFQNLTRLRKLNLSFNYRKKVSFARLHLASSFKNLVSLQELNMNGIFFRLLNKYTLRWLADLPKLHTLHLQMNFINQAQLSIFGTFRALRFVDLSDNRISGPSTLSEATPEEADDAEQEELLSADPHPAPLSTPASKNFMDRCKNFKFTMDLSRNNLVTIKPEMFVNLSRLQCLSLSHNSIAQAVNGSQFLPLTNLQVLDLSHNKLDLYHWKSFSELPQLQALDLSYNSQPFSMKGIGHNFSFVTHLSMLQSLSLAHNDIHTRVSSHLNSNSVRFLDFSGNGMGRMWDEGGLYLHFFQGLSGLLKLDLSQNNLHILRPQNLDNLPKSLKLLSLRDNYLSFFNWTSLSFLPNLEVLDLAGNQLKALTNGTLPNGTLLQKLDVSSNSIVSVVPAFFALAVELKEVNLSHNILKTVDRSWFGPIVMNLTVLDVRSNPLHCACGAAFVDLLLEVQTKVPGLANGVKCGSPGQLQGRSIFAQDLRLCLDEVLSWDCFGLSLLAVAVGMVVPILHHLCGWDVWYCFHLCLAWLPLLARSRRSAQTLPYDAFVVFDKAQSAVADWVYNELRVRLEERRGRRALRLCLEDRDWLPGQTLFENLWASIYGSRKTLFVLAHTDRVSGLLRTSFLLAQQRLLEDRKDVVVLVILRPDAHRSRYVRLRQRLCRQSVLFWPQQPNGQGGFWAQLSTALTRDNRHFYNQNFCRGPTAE
Protocol: as §1, §2, §3, §4

SMILES | cytotoxicity (MTT assay) (RAW264.7 cells) | inhibition of secretion of TLR7-induced TNF-α (TLR7; RAW264.7 cells) | inhibition of secretion of TLR9-induced TNF-α (TLR9; RAW264.7 cells) | also measured
O=C(c1cccc([N+](=O)[O-])c1)c1c[nH]c2ncccc12 [TAC5-052, (3-Nitro-phenyl)-(1H-pyrrolo[2,3-b]pyridin-3-yl)-methanone] | cytotoxic | – | – | solubility [1]: low
CC(C)n1cc(C(=O)c2ccccc2)c2cccnc21 [TAC5-050, (1-Isopropyl-1H-pyrrolo[2,3-b]pyridin-3-yl)-phenyl-methanone] | non-cytotoxic | inhibited the secretion of TLR7- or TLR9-induced TNF-α in a dose-dependent manner | inhibited the secretion of TLR7- or TLR9-induced TNF-α in a dose-dependent manner | pIC50 (TLR7): 4.62; pIC50 (TLR9): 4.27
O=C(c1ccc(Cl)c(Cl)c1)c1c[nH]c2ncccc12 [TAC5-053, (3,4-Dichloro-phenyl)-(1H-pyrrolo[2,3-b]pyridin-3-yl)-methanone] | cytotoxic | – | – | –
O=C(c1ccccc1)c1c[nH]c2ncc(Cl)cc12 [TAC5-055, (5-Chloro-1H-pyrrolo[2,3-b]pyridin-3-yl)-phenyl-methanone] | cytotoxic | – | – | –
O=C(c1ccc(Cl)c(F)c1)c1c[nH]c2ncccc12 [TAC5-054, (4-Chloro-3-fluoro-phenyl)-(1H-pyrrolo[2,3-b]pyridin-3-yl)-methanone] | cytotoxic | – | – | –
O=C(c1ccccc1)c1cn(S(=O)(=O)c2ccccc2)c2ncccc12 [TAC5-051, (1-Benzenesulfonyl-1H-pyrrolo[2,3-b]pyridin-3-yl)-phenyl-methanone] | non-cytotoxic | inhibited the secretion of TLR7- or TLR9-induced TNF-α in a dose-dependent manner | inhibited the secretion of TLR7- or TLR9-induced TNF-α in a dose-dependent manner | pIC50 (TLR7; RAW264.7 cells, compound 1 hour, then IMQ (1 μg/ml) 4 hours, mTNF-α ELISA (FIG. 9), read-out: IC50 for TLR7): 4.96; pIC50 (TLR9; RAW264.7 cells, compound 1 hour, then ODN 2395 (0.5 μM) 4 hours, mTNF-α ELISA (FIG. 8), read-out: IC50 for TLR9): 4.86
